The results in this text go back to BindingDB's records for patent US20250051319 (Augustine Therapeutics, 2025).

Assay [1] deals with T1, Histone deacetylase 6 (Homo sapiens, UniProt Q9UBN7).
T1 sequence (Q9UBN7 whole entry): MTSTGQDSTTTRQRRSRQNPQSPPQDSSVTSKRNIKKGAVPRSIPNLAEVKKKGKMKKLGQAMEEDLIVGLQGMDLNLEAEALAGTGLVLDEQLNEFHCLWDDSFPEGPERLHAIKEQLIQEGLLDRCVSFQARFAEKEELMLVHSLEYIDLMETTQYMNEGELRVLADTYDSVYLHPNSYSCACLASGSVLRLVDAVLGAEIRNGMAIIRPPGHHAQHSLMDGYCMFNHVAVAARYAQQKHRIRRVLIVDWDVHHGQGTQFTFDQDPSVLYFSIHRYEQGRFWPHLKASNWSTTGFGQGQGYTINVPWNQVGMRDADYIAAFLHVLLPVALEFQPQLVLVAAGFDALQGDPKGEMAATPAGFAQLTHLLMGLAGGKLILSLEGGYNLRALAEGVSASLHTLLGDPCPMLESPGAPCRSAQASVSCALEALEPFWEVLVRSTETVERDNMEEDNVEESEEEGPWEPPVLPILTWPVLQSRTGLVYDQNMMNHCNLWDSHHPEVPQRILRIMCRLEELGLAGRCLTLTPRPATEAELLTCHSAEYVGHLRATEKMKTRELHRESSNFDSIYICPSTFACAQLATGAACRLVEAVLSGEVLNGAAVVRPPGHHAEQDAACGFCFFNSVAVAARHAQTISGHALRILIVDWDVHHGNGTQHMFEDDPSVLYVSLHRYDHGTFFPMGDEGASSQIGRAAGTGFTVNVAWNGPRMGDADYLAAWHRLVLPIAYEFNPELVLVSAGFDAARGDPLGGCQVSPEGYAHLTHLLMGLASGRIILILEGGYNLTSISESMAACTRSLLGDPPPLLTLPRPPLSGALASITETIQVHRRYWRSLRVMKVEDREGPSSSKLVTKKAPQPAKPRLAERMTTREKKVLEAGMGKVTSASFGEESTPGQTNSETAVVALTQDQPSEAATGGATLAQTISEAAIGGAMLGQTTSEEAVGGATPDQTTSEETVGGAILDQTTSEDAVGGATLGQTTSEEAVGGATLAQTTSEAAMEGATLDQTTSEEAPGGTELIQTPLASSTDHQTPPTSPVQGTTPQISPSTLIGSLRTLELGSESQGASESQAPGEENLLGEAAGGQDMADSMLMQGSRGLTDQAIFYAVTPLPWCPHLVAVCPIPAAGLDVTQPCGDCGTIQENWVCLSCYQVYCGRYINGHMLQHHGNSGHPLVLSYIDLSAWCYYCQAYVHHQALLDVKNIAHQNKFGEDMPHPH
Nature of the assay: HDAC6 Enzymatic Activity Assay. The protocol: Dose response testing of HDAC6 and HDAC 1 were run at Reaction Biology Corporation (RBC). […] 2× enzyme was delivered in the wells of the reaction plate except for the “no enzyme” control wells. In the latter, buffer was added. Compounds in 100% DMSO were delved into the enzyme mixture by acoustic technology (Echo550). Plates are spun down and compounds were incubation with the enzyme for 10 min at room temperature. […] Developer containing Trichostatin A was added to stop the reaction and generate fluorescent color. A kinetic measurement was carried out for 20 min with 5 min interval on the Envision plate reader (Perkin Elmer, Ex/Em=360/460). End point reading i.e., plateau of the development reaction was used for analysis. Data was reported by RBC as percentage enzyme activity. Percentage inhibition was calculated by subtracting percentage enzyme activity from 100. IC50 values were calculated using GraphPad Prism 9 based on the log(inhibitor) vs. response—Variable slope (four parameters) equation.

Assay [2] has as its target T2, Histone deacetylase 6 [482-800] (Homo sapiens, UniProt Q9UBN7).
T2 construct: 482-800
T2 sequence (Q9UBN7 whole entry): T1 sequence (Q9UBN7 whole entry)
As to the kind of experiment: Cellular Target Engagement Assay. How it is done:
NanoBRET target engagement was performed against the catalytic domain 2 (CD2) of HDAC6, with minor modifications of kit manufacturer protocol (Promega). Expression of exogenous NanoLuc-HDAC6(CD2) fusion and in HEK293T was achieved following transient transfection with FuGENE HD Transfection Reagent (Promega). […] Compounds (dissolved in 100% DMSO) or DMSO (vehicle) were added either manually by diluting them in culture medium at 8× final assay concentration and then adding 5 μL to assay plate or in an automated way by adding 160 nL compound to 5 μL OptiMEM without phenol red (Gibco) using the Echo650 (Labcyte). Tracer solution was added to the cells before seeding 35 μL cell/tracer mixture in the assay plate. […] Assay plates were incubated at 37° C. in a humidified atmosphere containing 5% C02 for 2 hours. […] BRET ratios were calculated from acceptor/donor signal ratio (mBRET=acceptor/donor*1000) and normalized for each plate. Percentage inhibition was calculated by setting the mBRET obtained with cells without tracer to 100%, while the mBRET obtained with uninhibited cells with tracer was set to 0%. IC50-values were calculated from the percentage inhibition with the log(inhibitor) vs. response—Variable slope (four parameters) nonlinear regression in GraphPad Prism software.

A value given as a limit tells only on which side of the number the result lay.

Consider `COCC(=O)NCc1ccc(C(=O)CSc2nc(C)nc3ncc(OC)cc23)s1` [US20250051319, Compound 163], for which the IC50 in assay [1] is less than 100 nM.

As for `O=C(CSc1nc(C(F)(F)F)nc2ncccc12)c1ccc(CN2CC[C@@H](O)C2=O)s1` [US20250051319, Compound 155], the IC50 in assay [2] is less than 100 nM.
